According to paper PMC6419571, “Discovery and lead optimisation of a potent, selective and orally bioavailable RARβ agonist for the potential treatment of nerve injury” (Bioorganic & Medicinal Chemistry Letters, 2019):

Tests used:
Format in all cases: cell-based
[1] = biological target: T1, RARβ (Mus musculus, UniProt P22605); experiment: RAR beta transactivation assay (gal4-RAR LBD fusion, luciferase reporter, COS-7 cells); conditions: for Fold selectivity for β over γ: EC50 ratio of γ to β; for Fold selectivity for β over γ / Fold selectivity for β over α: mouse; for EC50: mouse RAR ligand binding domain, usually three experiments, read-out: β EC50; for Fold selectivity for β over α: EC50 ratio of α to β, Tables 1 and 4
T1 construct: expressed in transfected cells; host or cells: COS-7
T1 sequence (P22605 210-444 limits assumed): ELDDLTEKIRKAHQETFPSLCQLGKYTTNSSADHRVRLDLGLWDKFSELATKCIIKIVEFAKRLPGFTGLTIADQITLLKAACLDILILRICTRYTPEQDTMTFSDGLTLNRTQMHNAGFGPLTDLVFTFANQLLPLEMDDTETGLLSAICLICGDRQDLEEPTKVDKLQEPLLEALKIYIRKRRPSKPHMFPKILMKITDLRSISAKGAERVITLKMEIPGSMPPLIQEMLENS
Experimental: (§1) Compounds were tested in transactivation assays at the RAR α, β and γ receptors.
(§2) Transactivation assays for RAR alpha, beta and gamma receptors:
(§3) Transcriptional transactivation assays have been performed with gal4 fusion receptor constructs, created using each of the mouse RAR ligand-binding domains, co-transfected with the pFR-luc (Stratagene) reporter construct in COS-7 cells.
(§4) Briefly, on day one, 96 well plates were seeded with 8000 cells per well then left to recover overnight. On day two, the cells were co-transfected with 100ng of reporter plasmid and 10ng of the appropriate receptor plasmid per well using lipofectamine (Invitrogen). On day three, the lipofectamine containing media was replaced by a DMEM without phenol red, followed by the addition of novel compounds dissolved in 1µl of DMSO to each well’s 100µl total volume. Finally, on day four, the cells were lysed and their luciferase substrate was provided by the BrightGlo reagent (Promega), the plates were then read on the MicroBeta TriLux (Perkin Elmer).
(§5) Data for test compounds are quoted as EC50 values. Where replicate data has been generated the data are quoted as the mean EC50 from the separate experiments.

[2] = biological target: T2, RARα (Mus musculus, UniProt P11416); experiment: RAR alpha transactivation assay (gal4-RAR LBD fusion, luciferase reporter, COS-7 cells); conditions: mouse RAR ligand binding domain; usually three experiments; read-out: α EC50
T2 construct: expressed in transfected cells; host or cells: COS-7
T2 sequence (P11416 183-417 limits assumed): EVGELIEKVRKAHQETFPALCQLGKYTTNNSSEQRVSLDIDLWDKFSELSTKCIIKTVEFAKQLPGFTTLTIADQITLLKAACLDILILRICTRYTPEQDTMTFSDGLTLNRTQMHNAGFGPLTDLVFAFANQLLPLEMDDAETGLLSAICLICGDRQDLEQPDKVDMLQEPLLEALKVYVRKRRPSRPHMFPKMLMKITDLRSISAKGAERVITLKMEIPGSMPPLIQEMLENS
Experimental: as §1, §2, §3, §4, §5

[3] = biological target: T3, RARγ (Mus musculus, UniProt P18911); experiment: RAR gamma transactivation assay (gal4-RAR LBD fusion, luciferase reporter, COS-7 cells); conditions: mouse RAR ligand binding domain; Tables 1 and 4; read-out: γ EC50
T3 construct: expressed in transfected cells; host or cells: COS-7
T3 sequence (P18911 185-419 limits assumed): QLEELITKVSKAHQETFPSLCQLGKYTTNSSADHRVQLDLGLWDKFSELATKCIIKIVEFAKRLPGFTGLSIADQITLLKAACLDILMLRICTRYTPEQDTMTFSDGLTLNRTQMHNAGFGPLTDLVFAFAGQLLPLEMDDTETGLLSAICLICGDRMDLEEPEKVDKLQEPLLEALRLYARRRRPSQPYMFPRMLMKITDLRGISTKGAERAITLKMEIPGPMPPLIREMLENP
Experimental: as §1, §2, §3, §4, §5

Structure (SMILES) | Fold selectivity for β over γ [1] | EC50 [1] [nM] | EC50 [2] [nM] | Fold selectivity for β over α [1] | EC50 [3] [nM] | fold more potent than 1 as an RARβ agonist ([1]; relative to amide 1) [fold] | fold loss in potency as a RARβ agonist relative to 5 ([1]; relative to 5) [fold]
O=C(O)c1ccc(-c2noc(-c3cc4c(C(F)(F)F)ccc(F)c4o3)n2)cc1 [Compound 11] | 2 | 2.5 | 19 | – | – | – | –
CC(C)(C)c1cc(-c2nc(-c3ccc(C(=O)O)cc3)no2)cc(C(C)(C)C)c1 [Compound 9] | 2.1 | 1.4 | 4 | – | – | – | –
CCCCOCCOc1nc(-c2ccc(C(=O)O)c(F)c2)sc1C [AC 261066, reference compound] | 2.8 | 12 | 70 | 5.8 | 33 | – | –
CC1(C)CCC(C)(C)c2cc(-c3nc(-c4ccc(C(=O)O)cc4)no3)ccc21 [Compound 8] | 0.0041 | 4200 | 18 | – | – | – | > 2700
CCOc1c(Cl)cc(-c2c[nH]c(-c3ccc(C(=O)O)cc3)n2)cc1Cl [Compound 3] | – | 423 | 594 | 1.4 | – | – | –
CCOc1c(Cl)cc(-c2nc(-c3ccc(C(=O)O)cc3)no2)cc1Cl [Compound 5] | 19 | 1.5 | 18 | 12 | 28 | – | –
COc1ccc(-c2ccc3cc(C(=O)O)ccc3c2)cc1C1(C)CCCCC1 [CD 2019, reference compound] | – | 0.83 | 9.2 | – | 1.6 | – | –
CCOc1c(Cl)cc(-c2noc(-c3ccc(C(=O)O)cc3)n2)cc1Cl [Compound 6] | 0.05 | 110 | 31 | 0.28 | – | – | –
CCOc1c(Cl)cc(-c2csc(-c3ccc(C(=O)O)cc3)n2)cc1Cl [Compound 2] | 1.3 | 120 | 240 | 2 | – | – | –
CCOc1c(Cl)cc(C(=O)Nc2ccc(C(=O)O)cc2)cc1Cl [Compound 1, 4-[(3,5-dichloro-4-ethoxybenzoyl)amino]benzoic acid] | 24 | 1230 | 46 | 0.037 | – | – | –
CCOc1c(Cl)cc(-c2nnc(-c3ccc(C(=O)O)cc3)o2)cc1Cl [Compound 7] | 2.4 | 63 | 58 | 0.92 | – | – | –
CCOc1c(Cl)cc(-c2cnc(-c3ccc(C(=O)O)cc3)o2)cc1Cl [Compound 4] | 1.6 | 28 | 60 | 2.1 | – | > 40 | –

The next lines start with results.

Fold selectivity for β over γ [1] | EC50 [1] [nM] | EC50 [2] [nM] | Fold selectivity for β over α [1] | EC50 [3] [nM] | fold more potent than 1 as an RARβ agonist ([1]; relative to amide 1) [fold] | Structure (SMILES) | fold loss in potency as a RARβ agonist relative to 5 ([1]; relative to 5) [fold]
1.8 | 14 | 89 | – | – | – | Cc1cc(-c2noc(-c3cc4c(C)ccc(C)c4o3)n2)ccc1C(=O)O [Compound 15] | –
3.8 | 2.2 | 16 | – | – | – | Cc1ccc(C)c2oc(-c3nc(-c4ccc(C(=O)O)c(F)c4)no3)cc12 [Compound 14] | –
0.33 | 11 | 61 | – | – | – | Cc1ccc(C)c2oc(-c3nc(-c4ccc(C(=O)O)cc4F)no3)cc12 [Compound 16] | –
0.3 | 47 | 600 | – | – | – | Cc1cc(C(=O)O)ccc1-c1noc(-c2cc3c(C)ccc(C)c3o2)n1 [Compound 17] | –
2 | 3.4 | 30 | – | – | – | Cc1ccc(C)c2sc(-c3nc(-c4ccc(C(=O)O)cc4)no3)cc12 [Compound 12] | –
7.5 | 11 | 114 | – | – | – | Cc1ccc(C)c2oc(-c3nc(-c4ccc(C(=O)O)cc4)no3)nc12 [Compound 13] | –
